According to patent publication US20170007633A1, “TREATMENT OF NEURODEGENERATIVE AND NEURODEVELOPMENTAL DISEASES BY INHIBITION OF THE a2-Na/K ATPase/a-ADDUCIN COMPLEX” (PRESIDENT AND FELLOWS OF HARVARD COLLEGE, priority 2014, published 2017):
Entries after “also recorded” stand apart in the source; their conditions may differ.

How the values were obtained:
SOD1^G93A mice = assay type: in vivo
Experimental: Transgenic mice overexpressing mutant G93A human superoxide dismutase 1 (Jackson Laboratory stock#002726). α2-Na/K ATPase null heterozygous (provided by Dr. Jerry B. Lingrel) and C57BL6 (Charles River) were used. All analysis was done with littermate mice derived from SOD1^G93A heterozygous mating with non-transgenic wild type and heterozygous α2-Na/K ATPase mice. All animal experiments were conducted under the institutional guidelines and were approved by the Institutional Animal Care and Use Committee (IACUC).
All morphological studies were performed as described in Chandra et al., Cell 123:383-396 (2005), which is incorporated by reference. Briefly, mice were deeply anesthetized and perfused with 4% paraformaldehyde in phosphate buffer. Spinal cords were post-fixed in the same fixative for 4 hours and processed for cryoprotective embedding. Immunohistochemistry analyses were carried out on 30 um cryosections from spinal cords with the indicated antibodies. […] For lentiviral mediated RNAi a minimum of 20 sections were quantified for surviving motor neurons in the injected and non-injected ventral horns from Nissl stained and immunofluorescence labeled sections.

[1] = system: motor neurons co-cultured with SOD1^G93A astrocytes (Na/K ATPase); experiment: co-culture of SOD1^G93A or control astrocytes with primary motor neurons, pharmacological inhibition of Na/K ATPase; conditions: for impairment of dendrite morphology in motor neurons induced by SOD1^G93A astrocytes / motor neuron cell death induced by SOD1^G93A astrocytes: final concentration of 1 μm; for motor neuron cell death induced by SOD1^G93A astrocytes: vehicle 56%, 7 days of co-culture
Experimental: Monolayer astrocytes culture from P2 SOD1^G93A and non-transgenic littermate mice were prepared as described in Di Giorgio et al., Nat. Neurosci. 10:608-614 (2007) and Nagai et al., Nat. Neurosci. 10:615-622 (2007), each of which is incorporated by reference. Astrocytes were plated in DMEM (GIBCO) supplemented with 10% FBS containing 100 U/ml penicillin and […] for two weeks or until confluent. Once confluent, cells were replated onto glass cover slips precoated with poly-D-lysine at a density of 40,000 cells/well in a 24-well dish. For RNAi experiment astrocyte cultures were transfected with RNAi or control U6 plasmid using Lipofectamine 2000 (Invitrogen) according to the guidelines of the manufacturer four days prior to co-culturing with motor neurons.
Spinal motor neuronal cultures from E12.5 wild-type rodents were performed as described in Gingras et al., J. Neurosci. Methods 163:11-118 (2007), which is hereby incorporated by reference. Cultures were plated astrocyte monolayers at 12,000 cells/well in Neurobasal-A medium (GIBCO) supplemented with 2% B-27 serum free supplement and 0.5 mM glutamine; DMEM/F12 (3:1, v/v ratio) with a cocktail of trophic factors composed of 0.5 ng/ml glia-derived neurotrophic factor, 1 ng/ml brain-derived neurotrophic factor and 10 ng/ml ciliary neurotrophic factor (trophic factor cocktail, R&D Systems).
Motor neurons were fixed after 7 days of co-cultures with astrocytes and immunostained with Islet1, MAP2 and Hoechst 33258 and subjected to cell survival. Approximately 150 cells were counted per cover slip. For pharmacological inhibition of Na/K ATPase in co-cultures. […] For motor neuron morphology images were taken using a NIKON eclipse TE2000 epifluorescence microscope using a digital CCD camera (DIAGNOSTIC instruments) and imported into the SPOT imaging software. Approximately 40 cells were analyzed per cover slip.

Row | Substance | motor neurons per ventral horn section (SOD1^G93A mice; 1 mg/kg intraperitoneal on a 48-hour cycle from 80 days, toward end stage (130±5 days), vehicle 4.66±0.40) | motor neuron survival / degeneration in SOD1^G93A mice (SOD1^G93A mice; intraperitoneal digoxin compared to vehicle) | non-cell autonomous cell death and dendrite abnormalities induced by SOD1^G93A astrocytes (FIG. 5) [1] | survival or morphology of motor neurons co-cultured with control (non-transgenic) astrocytes [1] | impairment of dendrite morphology in motor neurons induced by SOD1^G93A astrocytes [1] | motor neuron cell death induced by SOD1^G93A astrocytes [1] [%]
1 | digoxin | 7.20±0.21 | protected motor neurons from degeneration; also recorded: significantly increases the number of motor neurons | neuroprotective | did not alter survival or morphology of motor neurons; also recorded: did not alter motor neuron survival or morphology | prevented impairment of dendrite morphology | 19
2 | ouabain | – | – | neuroprotective | did not alter survival or morphology of motor neurons; also recorded: did not alter motor neuron survival or morphology | prevented impairment of dendrite morphology | 22
